62 molecules from PubChem BioAssay AID489022 (Sanford-Burnham Center for Chemical Genomics, 2010) can be followed below.

The source made the active and inactive calls. No rule for the calls is given here.

The subject of this test is HEK-293T NF-kB luciferase reporter, luminescence counterscreen. Kind of test: NF-kB reporter suppression in HEK-293T cells – luminescence, B-cell screen hits, counter-screen for BCR NF-kB inhibitor project, dose response (AID 489022). A general note: The purpose of a counterscreen is to sort out artefacts and off-target activity.
`Cc1cc(OCC(=O)NC2CC2)c2c(C)c(C)c(=O)oc2c1`: the IC50 – broadly, the concentration at which inhibition is half-maximal – was > 80 µM (inactive).

Regarding `O=C(C1CCC1)N1CCN(S(=O)(=O)c2ccc([N+](=O)[O-])cc2)CC1`, the IC50 was > 80 µM (inactive).

As to `CC(C)c1ccc(/C=C2\SC(=S)N(CCC(=O)N3CCCCC3CCO)C2=O)cc1` (configuration not stated), the IC50 was 17.5 µM.

`C(=N\Nc1nc(Nc2ccccc2)nc(Nc2ccccc2)n1)/c1cccnc1`: the IC50 was > 80 µM (inactive).

On to `CCN(CC(=O)Nc1c(F)cccc1F)C(=O)c1cc(S(=O)(=O)N2CCOCC2)ccc1N1CCCC1`, for which the IC50 was > 80 µM (inactive).

For `CCNC(=O)CCc1nc(-c2ccc(C(C)(C)C)cc2)no1`, the IC50 is 34.9 µM (inactive).

Regarding `CCn1c(=S)[nH]c2cc(S(=O)(=O)N3CCCCC3)ccc21`, the IC50 is 33.9 µM (inactive).

Take `O=[N+]([O-])c1ccc(Sc2cc[n+]([O-])c3ccccc23)c([N+](=O)[O-])c1`: the IC50 was > 80 µM (inactive).

Regarding `O=C1CCCc2c1[nH]c1ccc(CN3CCCCC3)cc21`, the IC50 is > 80 µM (inactive).

Regarding `Cc1csc(NC(=O)CCc2c(C)nc3cc(-c4ccc(Cl)cc4)nn3c2C)n1`, the IC50 was 10.2 µM.

Turning to `COc1cc2c3c(c1)c(N=NC(N)=S)c(O)n3C(C)(C)C=C2C`, the IC50 is > 80 µM (inactive).

For `CC1CN(S(=O)(=O)c2ccc(C(=O)Nc3nc(-c4cc5ccccc5o4)cs3)cc2)CC(C)O1` (configuration not stated), the IC50 was less than 0.16 µM.

For `COc1ccc(C2=NCc3nnc(C)n3-c3ccc(Cl)cc32)cc1Cl`, the IC50 was > 80 µM (inactive).

In the case of `Cc1nc2ccccn2c1C(=O)/C=C/c1cccc([N+](=O)[O-])c1`, the IC50 was 52.6 µM (inactive).

Turning to `CCC(CC)C(=O)Nc1ccc(Sc2ccc([N+](=O)[O-])cc2)cc1`, the IC50 was 13.7 µM.

In the case of `Cc1nn(C)c(C)c1CN(C)S(=O)(=O)c1ccc2ccccc2c1`, the IC50 was 0.36 µM.

As to `CN(C)c1cc[n+](Cc2c(Cl)cccc2Cl)cc1`, the IC50 is 9.88 µM.

Consider `CC(=O)C1=NN(c2ccccc2)C(c2cccs2)N1c1ccc(N(C)C)cc1` (configuration not stated), for which the IC50 is 5.42 µM.

Regarding `Cc1[nH]c2ccccc2c1C(=O)CN1C(=O)NC2(CC(C)CC(C)(C)C2)C1=O` (configuration not stated), the IC50 is 43.3 µM (inactive).

With `CC(C)(C)c1ccc(-c2noc(CCC(=O)NCc3ccco3)n2)cc1`, the IC50 was 0.49 µM.

Regarding `O=C(CN1C(=O)c2ccccc2S1(=O)=O)c1ccc(Cl)cc1Cl`, the IC50 was 17.9 µM.

On to `COc1cc(NC(=O)c2ccco2)c(OC)cc1NC(=O)c1cc(OC)c(OC)c(OC)c1`, for which the IC50 is 17.7 µM.

With `CSC1CCCCC1(O)CSc1nc2c(cc1C#N)CCCC2` (configuration not stated), the IC50 is > 80 µM (inactive).

With `CCN(CC)c1ccc(/C=N/N=C(c2ccccc2)c2ccccc2)c(O)c1`, the IC50 is > 80 µM (inactive).

Consider `CCOc1ccc(-c2nnc(SCC(=O)Nc3cc(C)on3)o2)cc1`, for which the IC50 was > 80 µM (inactive).

On to `COc1ccc(C(=O)Nc2ccccc2C(=O)NCc2ccco2)cc1OC`, for which the IC50 was > 80 µM (inactive).

`COCCCn1c(=O)/c(=C\c2cccc(OC)c2OC)s/c1=C(/C#N)C(=O)Nc1ccc(C(=O)O)cc1`: the IC50 is 34.1 µM (inactive).

Turning to `C=CCOc1ccc(NC(=O)C(=O)NCCCn2ccnc2)cc1`, the IC50 was > 80 µM (inactive).

For `Cc1ccc(S(=O)(=O)N2CCCCC2CCNC(=O)C(=O)NCc2ccncc2)cc1` (configuration not stated), the IC50 was 38.4 µM (inactive).

As to `O=C(O)CCn1c(O)c(C=C2N=c3ccccc3=N2)sc1=S`, the IC50 was 70.8 µM (inactive).

As to `Cc1ccc2nc(NC(=O)CSCC(=O)OCC(=O)c3ccc(Br)cc3)sc2c1`, the IC50 is 1.82 µM.

In the case of `CCC(=O)N1c2ccccc2C(N(C(C)=O)c2ccccc2)CC1C` (configuration not stated), the IC50 is > 80 µM (inactive).

Consider `CC(C)c1ccc(/C=C2\SC(=S)N(CCC(=O)NCCCn3ccnc3)C2=O)cc1`, for which the IC50 is 50.2 µM (inactive).

On to `CCOc1ccc(-c2cc(CCCC(=O)NCc3ccc(C)cc3)no2)cc1`, for which the IC50 was 70.9 µM (inactive).

In the case of `CN1CCN(C(=O)c2ccccc2N(Cc2ccccc2)S(=O)(=O)c2ccccc2)CC1`, the IC50 was 45.4 µM (inactive).

`COc1ccc(/C=C2\SC(=O)N(CCCC(=O)Nc3ccc(C(=O)O)cc3)C2=O)cc1OC`: the IC50 is > 80 µM (inactive).

For `Cc1ccc(C(=O)OCC(=O)N(CC(C)C)c2c(N)n(Cc3ccccc3)c(=O)[nH]c2=O)o1`, the IC50 is > 80 µM (inactive).

`CNC(=O)c1cc(Nc2nnc(-c3ccc(O)cc3)c3ccccc23)ccc1OC`: the IC50 is > 80 µM (inactive).

For `COc1ccc(OCc2cccc(C(=O)Nn3cc([N+](=O)[O-])cn3)c2)cc1`, the IC50 was 11.9 µM.

For the molecule `Cc1ccc(-c2nc(C(=O)NCC3CCCO3)cc3c2[nH]c2ccccc23)cc1` (configuration not stated), the IC50 was 8.81 µM.

On to `COc1ccccc1/C=C1\SC(=S)N(CCC(=O)Nc2nnc(C)s2)C1=O`, for which the IC50 is > 80 µM (inactive).

For the molecule `COc1ccc(-c2csc3nc(-c4cccnc4)nc(N4CCC(C(N)=O)CC4)c23)cc1OC`, the IC50 is 9.06 µM.

As for `O=C(NCCCN1CCOCC1)c1cc(-c2ccc(Br)cc2)on1`, the IC50 is 43.7 µM (inactive).

For the molecule `CN(C)CCCN=Cc1c(-c2ccccc2)[nH]n(-c2nc3ccccc3s2)c1=O`, the IC50 is > 80 µM (inactive).

`O=C(N/N=C/c1ccc(Cl)cc1Cl)c1ccc(-n2cnnn2)cc1`: the IC50 is > 80 µM (inactive).

Consider `NC(=S)N=Nc1c(O)n(Cc2ccccc2)c2ccccc12`, for which the IC50 is > 80 µM (inactive).

In the case of `Cn1c(=NC(=O)CCl)sc2ccccc21`, the IC50 is 21.6 µM (inactive).

Turning to `C=CCOc1ccccc1CN(C(=O)CCl)c1ccc2c(c1)OCO2`, the IC50 was 28.1 µM (inactive).

`CCn1c(=O)cc(OCC(=O)N(C)C2CCCCC2)c2ccccc21`: the IC50 is > 80 µM (inactive).

In the case of `O=C(Nc1ccccc1C(=O)Nc1nnc(C(F)(F)F)s1)c1ccccc1`, the IC50 was 4.36 µM.

As to `Cc1ccc(-c2nn3c(C)nnc3c3ccccc23)cc1S(=O)(=O)NCc1ccco1`, the IC50 is 15.4 µM.

As for `COc1ccc(/C=C2/SC(=S)N(CCCC(=O)Nc3cccc(O)c3)C2=O)cc1`, the IC50 is 27.5 µM (inactive).

On to `COCCCNC(=O)COc1ccc(-c2nccc(-c3ccccn3)n2)cc1`, for which the IC50 is 48.1 µM (inactive).

Consider `O=C(CCCN1C(=O)S/C(=C/C=C/c2ccccc2)C1=O)Nc1ccc(C(=O)O)cc1`, for which the IC50 was > 80 µM (inactive).

For `CCOc1ccc(-c2cc(CCCC(=O)NCc3ccco3)no2)cc1`, the IC50 is 22.1 µM (inactive).

As to `COc1ccc(OC)c(NC(=O)c2[nH]c(C)c(C(C)=O)c2C)c1`, the IC50 is > 80 µM (inactive).

Take `COc1ccc(-c2noc(CCCC(=O)Nc3ccc(C(N)=O)cc3)n2)cc1`: the IC50 was 27.3 µM (inactive).

Turning to `Cc1c(CCC(=O)O)c(=O)oc2cc3oc4c(c3cc12)CCCC4`, the IC50 was 5.89 µM.

`COC(=O)C1=C(c2ccc(-c3ccccc3)c(F)c2)C[C@@H]2CC[C@H]1N2C(=O)N1CCCC1`: the IC50 is 1.83 µM.

With `NNC(=O)COc1ccc(-c2nccc(-c3ccc(F)cc3)n2)cc1`, the IC50 was 42.3 µM (inactive).

Turning to `COc1ccc(/C=C2\SC(=S)N(CCCC(=O)NNC(=O)c3ccccc3O)C2=O)cc1`, the IC50 is 2.28 µM.

On to `Cc1c(CCC(=O)NCCCn2ccnc2)c(=O)oc2c(C)c3oc4c(c3cc12)CCCC4`, for which the IC50 is 6.65 µM.
